Data from US8435975B2, “Steroidal esters of 17-oximino-5-androsten-3beta-ol” (Council of Scientific & Industrial Research, priority 2007, dated 2013).
Several values for one entry are separate records, joined by “and”; a condition that tells them apart may be missing. Equal values may be shown once. Entries after “also recorded” stand apart in the source; their conditions may differ.

What was measured:
[1] = test system: human prostate cancer cell line (DU-145); assay: Growth inhibitory activity assay (MTT assay), in vitro antiproliferative activity; format: cell-based; settings: DU-145 cells; for % growth inhibition (mean ± SEM) / inhibition at 0.01 µg/mL / inhibition at 0.5 µg/mL / inhibition at 1 µg/mL / inhibition at 2 µg/mL / inhibition at 5 µg/mL: 48 hr; for antiproliferative activity (in words): 0.01-5.0 μg/ml; for inhibition at 0.01 µg/mL / inhibition at 0.5 µg/mL / inhibition at 1 µg/mL / inhibition at 2 µg/mL / inhibition at 5 µg/mL: Homo sapiens, DU-145, 48 h, read-out: % growth inhibition (mean ± SEM)
Description: 1) In Vitro Antiproliferative Activity Against Human Prostate Cancer Cell Line (DU-145)
Compounds were screened for antiproliferative activity on human prostate cell line DU-145 at National Centre of Human Genome Studies and Research. Panjab University, Chandigarh. All the compounds (10 to 16), Finasteride and starting material (9) were tested at five different concentrations: 0.01, 0.5, 1.0, 2.0, and 5.0 μg/ml. Finasteride was the positive control in this growth inhibitory assay.
Growth Inhibitory Activity Assay (MTT Assay)
We investigated the effect of newly synthesized compounds on cell growth inhibition using MTT assay. This assay quantifies the viable cells by observing the reduction of tetrazolium salt, MTT to formazan crystals by the live cells. Based on the absorbance of the cell sample after the test is carried out, cell viable can be measured [Loveland, B. E.; Jones, T. G.; Mackay. I. R.; Vaillant, F.; Wang, Z. X.; Hertzog, P. J. Biochem. International 1992, 27, 501 and Wright, S. A.; Thomas, L. N.; Douglas, R. C.; Lazier, C. B.; Rittmaster, R. S. J. Clin. Invest. 1996, 98, 2558]. Cells were cultured at a density of 5×10^3 cells/well in 96 well plates at 37° C. in 5.0% CO2 atmosphere and were allowed to attach for 24 hr. The cells were treated in triplicate with graded concentration of sample and reference drug Finasteride at 37° C. for 48 hr. A 20 μl aliquot of MTT solution was added directly to all the appropriate wells. Following 4 hr of incubation at […], the media was removed and formazan crystals, which results from the reduction of MTT by active cell were dissolved in 100 μl DMSO and vigorously mixed to dissolve the reacted dye. The absorbance of each well was read on Elisa plate reader (Merck) at 570 nm. The spectrometer was calibrated to zero absorbance using culture medium without cells. The relative cell viability (%) related to control well containing cell culture medium without drug was calculated by [A]test/[A]control×100. % Growth Inhibition=[OD]control−[OD]test/[OD]control×100 Results: […]

5α-reductase = assay: In vivo effect on serum testosterone level (5α-reductase inhibitory activity), ELISA; parameters: species or system Sprague Dawley rats; settings: for Serum levels of Testosterone, T: Sprague Dawley male rats, intraperitoneal, Finasteride 40 mg/kg and equimolar dose of compounds, 6 hr after treatment
Description: Animals (Sprague Dawley male rats weighing 150-200 g) were divided into 3 groups; vehicle (control), Finasteride (standard), treated (test sample) and each group consist of 5 animals. Sprague Dawley rats were treated intraperitoneally with Finasteride 40 mg/kg and equimolar dose of compounds. After 6 hr of treatment, blood was withdrawn by cardiac puncture under diethyl ether anesthesia and serum was separated from cells by centrifugation. Plasma testosterone values were obtained by ELISA plate reader at […] and are given in ng/ml.
The aliquots of 50 μl of each of standards, control and unknown (serum samples) were added to Testosterone Antibody coated wells. 100 μl of HRP-testosterone conjugate was added to all the wells and the plates were shaken gently on a shaker for proper mixing of the reagents. Following 4 hr of incubation at 37° C., the incubation mixture was removed. The wells were washed with phosphate buffer for 5-6 times (200 μl each time), followed by addition of 100 μl of TMB/H2O2 substrate in each of the wells. The plates were further incubated at 37° C. for 20 minutes. At the end of incubation reaction was stopped by using 100 μl of 0.5 M H2SO4 as stopping reagent. The absorbance of each well was read on Elisa plate reader at 450 nm [Rassaie, M. J.; Kumari, G. L.; Pandey, P. K.; Gupta, N.; Kochupillai, N.; Grover, P. K. Steroids 1992, 57, 288 and Hosoda, H.; Yoshida, H.; Sakai, Y.; Miyairi, S.; Nambara, T. Chem. Pharm. Bull. 1980, 28, 3035]
Intact male rats (Sprague Dawley, 200-250 g) were used in the designed study in which various compounds were compared for in vivo 5α-reductase inhibitory potency, as judged by the their ability to attenuate the conversion of testosterone into dihydrotestosterone (DHT). […] The procedure measure T equally well, and method met all the requirement of precision, accuracy, sensitivity and selectivity.

[2] = In vitro cytotoxicity using mouse macrophages (acute toxicity), MTT assay; format: cell-based; settings: both sexes, Balb C; mouse macrophages, from linear equation of MTT data; read-out: LC50 (concentration lethal to 50% population of cells)
Description: (§1) All steroids were dissolved in ethanol and diluted to appropriate concentration: 0.01, 0.5, 1.0, 2.0, 5.0 μg/ml from the two stock solution of 1 mg/ml and […]. Stocks were maintained at room temperature.
(§2) […] Approximately 1 ml of Phosphate buffer saline preincubated at 37° C. was injected into cavity. The abdomen was lavaged for 10 min and fluid along with macrophages were taken out using a syringe into polypropylene tube. The phosphate solution was spun at 800 rpm for 5-10 min and cells were resuspended in 1 ml RPMI media. Cell number was counted using haemocytometer.
(§3) Cells (mouse macrophages) were plated at a density of 5×10^3 cells/well in 96 plate at 37° C. in 5% CO2. Cells were exposed in graded concentration of compounds at designated various concentration. Each concentration was tested in triplicate wells. After 48 hr fresh MTT 20 μl (1 mg/ml) was added directly to all the wells and culture was incubated for 4 hr at 37° C. During this incubation, MTT was converted into a water insoluble formazan complex by metabolic activity of viable cells. Formazan crystal were taken and dissolved in 100 μl of DMSO, which give light pink colour. The absorbance of each well was read on Elisa plate reader (Merck) at 570 nm. The spectrometer was calibrated to zero absorbance using culture medium without cells. The relative cell viability (%) related to control well containing cell culture medium without drug was calculated by [A]test/[A]control×100. % Cell Viability=[A]test/[A]control×100 [A]test=absorbance test sample [A]control=absorbance control sample Results: LC50: Concentration of the Compound in μg/ml (μm), Lethal to 50% Population of Cells.
(§4) The assay quantifies the viable cells, after […] incubation of cells with five different concentrations.

[3] = test system: mouse macrophages (Balb C); assay: as above; format: cell-based
Description: as §1, §2, §3, §4

[4] = both, Balb C, mouse, 48 h, 0.01 μg/ml
[5] = both, Balb C, mouse, 48 h, 0.5 μg/ml
[6] = both, Balb C, mouse, 48 h, 1 μg/ml
[7] = both, Balb C, mouse, 48 h, 2 μg/ml
[8] = both, Balb C, mouse, 48 h, 5 μg/ml

| SMILES | % growth inhibition (mean ± SEM) ([1]; 5.0 μg/ml) | antiproliferative activity (in words) [1] | inhibition at 0.01 µg/mL ([1]; 0.01 μg/ml) [%] | inhibition at 0.5 µg/mL ([1]; 0.5 μg/ml) [%] | inhibition at 1 µg/mL ([1]; 1.0 μg/ml) [%] | inhibition at 2 µg/mL ([1]; 2.0 μg/ml) [%] | inhibition at 5 µg/mL ([1]; 5.0 μg/ml) [%] | Serum levels of Testosterone, T (5α-reductase) | CC50 at 48 h [2] [µM] | % viable Cells (mean ± SEM) [3, 4] [%] | % viable Cells (mean ± SEM) [3, 5] [%] | % viable Cells (mean ± SEM) [3, 6] [%] | % viable Cells (mean ± SEM) [3, 7] [%] | % viable Cells (mean ± SEM) [3, 8] [%] | other results |
| --- | --- | --- | --- | --- | --- | --- | --- | --- | --- | --- | --- | --- | --- | --- | --- |
| C[C@]12CC[C@H](OC(=O)c3ccccc3)CC1=CC[C@@H]1[C@@H]2CC[C@]2(C)C(=NO)CC[C@@H]12 [Compound 13, 17-oximino-5-androsten-3β-yl benzoate] | 91.10 ± 2.10% | more potent than the reference Finasteride | 47 ± 1.67 | 48.9 ± 1.66 | 67.6 ± 1.62 | 85.9 ± 4.08 | > 90 | 1.05 ± 0.08 ng/mL and 1.05 ng/mL | 89.4 | – | – | – | – | – | % viable Cells (mean ± SEM) ([3]; mouse macrophages, 0.01 μg/ml): 87.71 ± 0.29%; % viable Cells (mean ± SEM) ([3]; mouse macrophages, 0.5 μg/ml): 84.74 ± 0.27%; % viable Cells (mean ± SEM) ([3]; mouse macrophages, 1.0 μg/ml): 83.61 ± 0.20%; % viable Cells (mean ± SEM) ([3]; mouse macrophages, 2.0 μg/ml): 83.85 ± 0.28%; % viable Cells (mean ± SEM) ([3]; mouse macrophages, 5.0 μg/ml): 82.99 ± 0.36%; toxicity to mouse macrophages (in words) ([3]; mouse macrophages, 0.01-5.0 μg/ml): non toxic to mouse macrophages |
| Cc1ccc(C(=O)O[C@H]2CC[C@@]3(C)C(=CC[C@@H]4[C@@H]3CC[C@]3(C)C(=NO)CC[C@@H]43)C2)cc1 [Compound 12, 17-oximino-5-androsten-3β-yl 4-methylbenzoate] | 92.94 ± 0.13% | more potent than the reference Finasteride | 42.6 ± 2.21 | 63 ± 4.78 | 85 ± 3.99 | 89.5 ± 0.96 | > 90 | 1.16 ng/mL | 22 | 79.39 ± 0.77 | 77.46 ± 0.75 | 73.03 ± 0.36 | 69.10 ± 0.84 | 65.26 ± 2.79 | effect on serum testosterone level (in words) (5α-reductase; rats, 6 hr post dose, compared to control): increased activity |
| C[C@]12CC[C@H](OC(=O)c3ccc(O)cc3)CC1=CC[C@@H]1[C@@H]2CC[C@]2(C)C(=NO)CC[C@@H]12 [Compound 15, 17-oximino-5-androsten-3β-yl 4-hydroxybenzoate] | 91.54 ± 0.19% | more potent than the reference Finasteride | 62.6 ± 2.46 | 76.9 ± 5.94 | 83.08 ± 0.75 | 91.4 ± 1.5 | > 90 | 0.73 ng/mL | 22 | 89.80 ± 2.95 | 81.02 ± 2.83 | 63.99 ± 0.91 | 56.88 ± 0.39 | 55.36 ± 0.19 | – |
| CC(C)(C)NC(=O)[C@H]1CC[C@H]2[C@@H]3CC[C@H]4NC(=O)C=C[C@]4(C)[C@H]3CC[C@]12C [Finasteride, reference compound] | 78.51 ± 4.63% | – | 5 ± 1.58 | 8.83 ± 8.4 | 16.5 ± 2.49 | 36 ± 8.95 | 78 | 1.26 ± 0.02 ng/mL and 1.26 ng/mL | 28.2 | 96.45 ± 0.36 | 94.20 ± 1.72 | 93.32 ± 0.59 | 81.18 ± 0.20 | 79.14 ± 0.312 | – |
| C[C@]12CC[C@H](O)CC1=CC[C@@H]1[C@@H]2CC[C@]2(C)C(=NO)CC[C@@H]12 [Parent Compound 9, 17-oximino-5-androsten-3β-ol] | Ni^a | not shown any significant inhibitory effect on cell proliferation; also recorded: not shown significant antiproliferative activity | – | – | – | – | – | – | – | – | – | – | – | – | % growth inhibition (mean ± SEM) ([1]; 0.01 μg/ml): Ni^a; % growth inhibition (mean ± SEM) ([1]; 0.5 μg/ml): Ni^a; % growth inhibition (mean ± SEM) ([1]; 1.0 μg/ml): Ni^a; % growth inhibition (mean ± SEM) ([1]; 2.0 μg/ml): Ni^a |
